Experimental data from PubChem BioAssay AID1918938 (Molecular Pharmacology Branch, DTP, NCI, 2023).

Test system: 556581-035-R-J1-PDC complex spheroid viability
Test: Anticancer human tumor 556581-035-R-J1-PDC patient-derived ovarian carcinoma cell line growth inhibition
Details: for IC50: curve of first compound; for viability, T/C: stronger effect = lower value
In short: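 Drug combinations with the LSD1 inhibitor iadademstat tested on tumor cells co-cultured as spheroids with endothelial cells and mesenchymal stem cells. Concentrations descended in half-log increments from clinical Cmax or 10 microM.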

[1] = second compound 0.1 µM, first compound 0.00949 µM
[2] = second compound 0.1 µM, first compound 0.03 µM
[3] = second compound 0.1 µM, first compound 0.0949 µM
[4] = second compound 0.1 µM, first compound 0.3 µM
[5] = second compound 0.1 µM, first compound 0.949 µM
[6] = second compound 0.1 µM, first compound 3 µM
[7] = second compound 0.316 µM, first compound 0.00949 µM
[8] = second compound 0.316 µM, first compound 0.03 µM
[9] = second compound 0.316 µM, first compound 0.0949 µM
[10] = second compound 0.316 µM, first compound 0.3 µM
[11] = second compound 0.316 µM, first compound 0.949 µM
[12] = second compound 0.316 µM, first compound 3 µM
[13] = second compound 1 µM, first compound 0.00949 µM
[14] = second compound 1 µM, first compound 0.03 µM
[15] = second compound 1 µM, first compound 0.0949 µM
[16] = second compound 1 µM, first compound 0.3 µM
[17] = second compound 1 µM, first compound 0.949 µM
[18] = second compound 1 µM, first compound 3 µM
[19] = second compound 3.16 µM, first compound 0.00949 µM
[20] = second compound 3.16 µM, first compound 0.03 µM
[21] = second compound 3.16 µM, first compound 0.0949 µM
[22] = second compound 3.16 µM, first compound 0.3 µM
[23] = second compound 3.16 µM, first compound 0.949 µM
[24] = second compound 3.16 µM, first compound 3 µM
[25] = second compound 10 µM, first compound 0.00949 µM
[26] = second compound 10 µM, first compound 0.03 µM
[27] = second compound 10 µM, first compound 0.0949 µM
[28] = second compound 10 µM, first compound 0.3 µM
[29] = second compound 10 µM, first compound 0.949 µM
[30] = second compound 10 µM, first compound 3 µM
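Also: spheroids exposed to agents for seven days.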
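For viability, T/C in this document: 100% = DMSO vehicle control wells.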

Cn1ncnc1C1c2n[nH]c(=O)c3cc(F)cc(c23)NC1c1ccc(F)cc1 (stereo not given) + NC1CCC(NC2CC2c2ccccc2)CC1
IC50 (second compound 0.1 µM): > 100 nM | IC50 (second compound 0.316 µM): > 100 nM | IC50 (second compound 1 µM): > 100 nM | IC50 (second compound 3.16 µM): > 100 nM | IC50 (second compound 10 µM): > 100 nM | viability, T/C (second compound 0.1 µM, first compound 0.000316 µM): 97% | viability, T/C (second compound 0.1 µM, first compound 0.001 µM): 105% | viability, T/C (second compound 0.1 µM, first compound 0.00316 µM): 92.3% | viability, T/C (second compound 0.1 µM, first compound 0.01 µM): 91.2% | viability, T/C (second compound 0.1 µM, first compound 0.0316 µM): 94% | viability, T/C (second compound 0.1 µM, first compound 0.1 µM): 85.4% | viability, T/C (second compound 0.316 µM, first compound 0.000316 µM): 100% | viability, T/C (second compound 0.316 µM, first compound 0.001 µM): 94.7% | viability, T/C (second compound 0.316 µM, first compound 0.00316 µM): 99.6% | viability, T/C (second compound 0.316 µM, first compound 0.01 µM): 91.6% | viability, T/C (second compound 0.316 µM, first compound 0.0316 µM): 87.4% | viability, T/C (second compound 0.316 µM, first compound 0.1 µM): 91.9% | viability, T/C (second compound 1 µM, first compound 0.000316 µM): 91% | viability, T/C (second compound 1 µM, first compound 0.001 µM): 92.2% | viability, T/C (second compound 1 µM, first compound 0.00316 µM): 94.1% | viability, T/C (second compound 1 µM, first compound 0.01 µM): 101% | viability, T/C (second compound 1 µM, first compound 0.0316 µM): 80.6% | viability, T/C (second compound 1 µM, first compound 0.1 µM): 92.1% | viability, T/C (second compound 3.16 µM, first compound 0.000316 µM): 87.1% | viability, T/C (second compound 3.16 µM, first compound 0.001 µM): 87.2% | viability, T/C (second compound 3.16 µM, first compound 0.00316 µM): 89.3% | viability, T/C (second compound 3.16 µM, first compound 0.01 µM): 79.5% | viability, T/C (second compound 3.16 µM, first compound 0.0316 µM): 84.9% | viability, T/C (second compound 3.16 µM, first compound 0.1 µM): 80.8% | viability, T/C (second compound 10 µM, first compound 0.000316 µM): 73.9% | viability, T/C (second compound 10 µM, first compound 0.001 µM): 77.8% | viability, T/C (second compound 10 µM, first compound 0.00316 µM): 76.1% | viability, T/C (second compound 10 µM, first compound 0.01 µM): 80.8% | viability, T/C (second compound 10 µM, first compound 0.0316 µM): 73.5% | viability, T/C (second compound 10 µM, first compound 0.1 µM): 71.5%

NS(=O)(=O)OCC1CC(n2ccc3c(NC4CCc5ccccc54)ncnc32)CC1O (stereo not given) + NC1CCC(NC2CC2c2ccccc2)CC1
IC50 (second compound 0.1 µM): > 3000 nM | IC50 (second compound 0.316 µM): > 3000 nM | IC50 (second compound 1 µM): 2370 nM | IC50 (second compound 3.16 µM): 1500 nM | IC50 (second compound 10 µM): 545 nM | viability, T/C [1]: 117% | viability, T/C [2]: 122% | viability, T/C [3]: 124% | viability, T/C [4]: 91.3% | viability, T/C [5]: 86.6% | viability, T/C [6]: 58.4% | viability, T/C [7]: 119% | viability, T/C [8]: 112% | viability, T/C [9]: 123% | viability, T/C [10]: 99.8% | viability, T/C [11]: 85.7% | viability, T/C [12]: 50.4% | viability, T/C [13]: 99% | viability, T/C [14]: 115% | viability, T/C [15]: 121% | viability, T/C [16]: 92.2% | viability, T/C [17]: 74.3% | viability, T/C [18]: 43.7% | viability, T/C [19]: 103% | viability, T/C [20]: 106% | viability, T/C [21]: 110% | viability, T/C [22]: 84.8% | viability, T/C [23]: 65.9% | viability, T/C [24]: 28.8% | viability, T/C [25]: 86.7% | viability, T/C [26]: 86.1% | viability, T/C [27]: 83.4% | viability, T/C [28]: 62.1% | viability, T/C [29]: 37.9% | viability, T/C [30]: 15.2%

O=C(C=Cc1cccc(S(=O)(=O)Nc2ccccc2)c1)NO + NC1CCC(NC2CC2c2ccccc2)CC1
IC50 (second compound 0.1 µM): 108 nM | IC50 (second compound 0.316 µM): 87 nM | IC50 (second compound 1 µM): 76.3 nM | IC50 (second compound 3.16 µM): 92.8 nM | IC50 (second compound 10 µM): 39.6 nM | viability, T/C [1]: 85.6% | viability, T/C [2]: 78.4% | viability, T/C [3]: 51.1% | viability, T/C [4]: 26.1% | viability, T/C [5]: 1.81% | viability, T/C [6]: 0.24% | viability, T/C [7]: 87.7% | viability, T/C [8]: 74.3% | viability, T/C [9]: 42.9% | viability, T/C [10]: 31.7% | viability, T/C [11]: 3.05% | viability, T/C [12]: 0.34% | viability, T/C [13]: 97.2% | viability, T/C [14]: 65.7% | viability, T/C [15]: 50.4% | viability, T/C [16]: 24.6% | viability, T/C [17]: 2.56% | viability, T/C [18]: 0.21% | viability, T/C [19]: 77.9% | viability, T/C [20]: 73.1% | viability, T/C [21]: 47.9% | viability, T/C [22]: 22% | viability, T/C [23]: 2.44% | viability, T/C [24]: 0.16% | viability, T/C [25]: 74.2% | viability, T/C [26]: 51.7% | viability, T/C [27]: 37.6% | viability, T/C [28]: 23% | viability, T/C [29]: 1.28% | viability, T/C [30]: 0.28%
